The values that follow come from patent publication US5280111A, “Sulfated tocopheryl oligosaccharides and antiviral agents including the same as active ingredients” (Dainippon Ink and Chemicals, Inc., priority 1991, dated 1994).

In brackets after ≈: the same amount, converted by molar mass. Where two headings read alike, the source gives them in different places. Some results are limits rather than exact numbers.

Assay type in all cases: cell-based
For one series, the system named is MT-4 cells. The series is described as follows: Cytotoxicity: inhibitory effect on host cell viability, mock-infected MT-4 cells (MTT method). As to conditions: human, mt-4 cells, 120 h. The procedure: (§1) Activity of the compound against HIV-1 replication was based on the inhibition of virus induced cytopathogenicity in MT-4 cells. MT-4 cells were suspended in culture medium at 2.5×10^4 cells/ml and infected with HIV-1 at a multiplicity of infection (MOI) of 0.01. 100 μl of cell suspension was brought into microtiter tray wells containing various concentrations of the test compounds.
(§2) After 5 days of incubation at 37° C. using a CO2 incubator, the number of viable cells was determined by the MTT method.
(§3) The inhibitory effect on host cell viability (cytotoxicity) was also determined by the MTT method. All activities of the compounds are expressed as 50% inhibitory concentration, i.e., the concentration required to reduce the number of HIV-1-infected MT-4 cells or mock-infected MT-4 cells by 50%. These are expressed using EC50 and CC50. SI is expressed by the ratio of CC50 /EC50. (Reference document: Pauwels, et al., J. Virol Methods, 20 (1988) 309~321).
(§4) According to this method, the anti-HIV assay was carried out using the compounds obtained in Examples 9 to 14. In addition, AZT (3'-azido-3'-deoxythymidine) known as an anti-AIDS agent was employed as a comparative example.

The subject of another series is HIV-1. The series is described as follows: Anti-HIV assay: inhibition of virus induced cytopathogenicity in MT-4 cells (MTT method). As to conditions: for EC50: HIV-1-infected MT-4 cells, MOI 0.01, 5 days at 37° C., MTT method; for SI: ratio of CC50/EC50, 7200 min. The procedure: as §1, §2, §3, §4
Series [1] can be described thus: Cytotoxicity: inhibitory effect on host cell viability, mock-infected MT-4 cells (MTT method). The following applies: human; mock-infected MT-4 cells; 50% reduction of viable cells; MTT method; 5 days at 37° C. The procedure:
as §1, §2, §3, §4

In the case of `Cc1c(C)c2c(c(C)c1O[C@@H]1O[C@H](COS(=O)(=O)O)[C@@H](O[C@@H]3O[C@H](COS(=O)(=O)O)[C@H](O[C@@H]4O[C@H](COS(=O)(=O)O)[C@H](O[C@@H]5O[C@H](COS(=O)(=O)O)[C@H](OS(=O)(=O)O)[C@H](OS(=O)(=O)O)[C@H]5OS(=O)(=O)O)[C@H](OS(=O)(=O)O)[C@H]4OS(=O)(=O)O)[C@H](OS(=O)(=O)O)[C@H]3OS(=O)(=O)O)[C@H](OS(=O)(=O)O)[C@H]1OS(=O)(=O)O)CCC(C)(CCCC(C)CCCC(C)CCCC(C)C)O2` (mixture of isomers) [Example 13, sulfated dl-α-tocopheryl β-D-galactosyl(1→4)-β-D-galactosyl(1→4)-β-D-lactoside], the CC50 with MT-4 cells amounted to 621 µg/mL.
For `Cc1cn([C@H]2C[C@H](N=[N+]=[N-])[C@@H](CO)O2)c(=O)[nH]c1=O` [AZT, 3'-azido-3'-deoxythymidine, reference compound], the EC50 with HIV-1 (Human immunodeficiency virus 1, MT4, 120 h, read-out: EC50) stood at 0.0013 µg/mL (≈ 0.00486 µM). In addition, the SI in the series with HIV-1 is on record as 2160. The same compound yielded a CC50 at 120 h in series [1] of 2.88 µg/mL (≈ 10.8 µM).
Consider “sulfated dl-α-tocopheryl β-D-galactosyl(1→4)-β-D-galactosyl(1→4)-β-D-lactoside [Example 14]”, for which, in the series with HIV-1, the EC50 came out at 0.57 µg/mL and the SI was 1151. Besides, in the series with MT-4 cells, the CC50 came out at 656 µg/mL.
For “sulfated dl-α-tocopheryl β-D-galactosyl(1→4)-β-D-lactoside [Example 9]”, in that order: 1.03 µg/mL, 587 and 606 µg/mL.
For “sulfated ester sodium salt of dl-α-tocopheryl β-D-glucosyl(1→3)-{β-D-glucosyl(1→3)}3 -β-D-glucoside (1) [Example 10]” the same measures were 0.52 µg/mL, more than 920 and more than 480 µg/mL.
For “sulfated ester sodium salt of dl-α-tocopheryl β-D-glucosyl(1→3)-{β-D-glucosyl(1→3)}3 -β-D-glucoside (2) [Example 11]” the same measures were 0.45 µg/mL, more than 1000 and more than 480 µg/mL.
As to “sulfated ester sodium salt of dl-α-tocopheryl β-D-glucosyl(1→3)-{β-D-glucosyl(1→3)}7 -β-D-glucoside [Example 12]”, in the series on HIV-1, the EC50 stood at 0.44 µg/mL and the SI is listed as more than 1000. The CC50 in the series on MT-4 cells is more than 480 µg/mL.
